Where a name gives a salt, the structure may show the parent alone.

The subject of the first assay is Escherichia coli ATCC 25922. Description: 50% growth inhibitory concentration (IC50) determination, Iso-Sensitest broth dilution. In kind it is cell-based. As to conditions: Escherichia coli, ATCC25922, 16 h, strain Escherichia coli ATCC 25922; 10-point broth dilution, optical density at 600 nm over 16 h; read-out: Escherichia coli growth inhibition IC50. A digest of the protocol:
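10-point twofold Iso-Sensitest broth dilution (e.g. 50 to 0.097 μM final) with DMSO stocks, incubated at 35±2° C. Growth followed by OD 600 nm every 20 min over 16 h; IC50 derived from growth inhibition during logarithmic phase.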
(Dilution methods test growth across graded concentrations, often in twofold steps.)
A word on the IC50: it is the midpoint of a concentration-inhibition curve. For the compound `O=C1COc2ncc(N3CC(CCNCC4Cc5cc(OCCn6cncn6)cc(F)c5C4)OC3=O)nc2N1` (stereo not shown) [Example 296, 6-[5-[2-[[4-fluoro-6-[2-(l,2,4-triazol-1-yl)ethoxy]-2,3-dihydro-1H-inden-2-yl]methylamino]ethyl]-2-oxo-1,3-oxazolidin-3-yl]-4H-pyrazino[2,3-b][1,4]oxazin-3-one; formic acid], the IC50 was found to be 381 nM.
The same measure, in the same setting: the figure for `NC(=O)COc1cc(F)c2c(c1)CC(CNCC[C@@H]1CN(c3cnc4c(n3)NC(=O)CO4)C(=O)O1)C2` (single isomer, unassigned; isomer a) [Example 381] is 105 nM; for `N#Cc1c(OCC2(N)CC2)ccc2c1CC(CNCCC1CN(c3ccc4c(n3)NC(=O)CO4)C(=O)O1)C2` (stereo not shown) [Example 124, 5-[(1-aminocyclopropyl)methoxy]-2-[[2-[2-oxo-3-(3-oxo-4H-pyrido[3,2-b][1,4]oxazin-6-yl)-1,3-oxazolidin-5-yl]ethylamino]methyl]-2,3-dihydro-1H-indene-4-carbonitrile hydrochloride] it is < 97.7 nM; for `Cc1nc(OCCN)c(C)c2c1CC(CNCCC1CN(c3ccc4c(n3)NC(=O)CO4)C(=O)O1)C2` (stereo not shown) [Example 171, 6-[5-[2-[[3-(2-aminoethoxy)-1,4-dimethyl-6,7-dihydro-5H-cyclopenta[c]pyridin-6-yl]methylamino]ethyl]-2-oxo-1,3-oxazolidin-3-yl]-4H-pyrido[3,2-b][1,4]oxazin-3-one] it is 178 nM.
As to `N[C@H]1c2cccc(Cl)c2C[C@@H]1CNCC[C@H]1CN(c2cnc3c(n2)NC(=O)CO3)C(=O)O1` [Example 401, 6-[(5S)-5-[2-[[(1R,2R)-1-amino-4-chloro-2,3-dihydro-1H-inden-2-yl]methylamino]ethyl]-2-oxo-1,3-oxazolidin-3-yl]-4H-pyrazino[2,3-b][1,4]oxazin-3-one], the half-maximal inhibitory concentration (IC50) was < 97.7 nM.
The same measure, in the same setting: the figure for `CC(N)COc1cc2c(c(Cl)n1)CC(CNCCC1CN(c3cnc4c(n3)NC(=O)CO4)C(=O)O1)C2` (stereo not shown) [Example 145, 6-[5-[2-[[3-(2-aminopropoxy)-1-chloro-6,7-dihydro-5H-cyclopenta[c]pyridin-6-yl]methylamino]ethyl]-2-oxo-oxazolidin-3-yl]-4H-pyrazino[2,3-b][1,4]oxazin-3-one; formic acid] is 191 nM; for `Cc1ncc(F)c2c1CC(NCCCC1CN(c3cnc4c(n3)NC(=O)CO4)C(=O)O1)C2` (stereo not shown) [Example 79, 6-[5-[3-[(4-fluoro-1-methyl-6,7-dihydro-5H-cyclopenta[c]pyridin-6-yl)amino]propyl]-2-oxo-1,3-oxazolidin-3-yl]-4H-pyrazino[2,3-b][1,4]oxazin-3-one] it is < 97.7 nM; for `N#Cc1cc(OCC2(N)CC2)cc2c1CC(CNCCC1CN(c3ccc4c(n3)NC(=O)CO4)C(=O)O1)C2` (stereo not shown) [Example 185, 6-[(1-aminocyclopropyl)methoxy]-2-[[2-[2-oxo-3-(3-oxo-4H-pyrido[3,2-b][1,4]oxazin-6-yl)-1,3-oxazolidin-5-yl]ethylamino]methyl]-2,3-dihydro-1H-indene-4-carbonitrile] it is < 97.7 nM.
As for `Cn1ccc(COc2cc(C#N)c3c(c2)CC(CNCCC2CN(c4cnc5c(n4)NC(=O)CO5)C(=O)O2)C3)n1` (stereo not shown) [Example 388, 6-[(1-methylpyrazol-3-yl)methoxy]-2-[[2-[2-oxo-3-(3-oxo-4H-pyrazino[2,3-b][1,4]oxazin-6-yl)-1,3-oxazolidin-5-yl]ethylamino]methyl]-2,3-dihydro-1H-indene-4-carbonitrile], the IC50 was determined as 192 nM.
Still for that read-out and setting: the figure for `CC(C)(N)COc1cc(F)c2c(c1F)CC(CN1CCC3(CC1)CN(c1cnc4c(n1)NC(=O)CO4)C(=O)O3)C2` (stereo not shown) [Example 412, 6-[8-[[5-(2-amino-2-methylpropoxy)-4,7-difluoro-2,3-dihydro-1H-inden-2-yl]methyl]-2-oxo-1-oxa-3,8-diazaspiro[4.5]decan-3-yl]-4H-pyrazino[2,3-b][1,4]oxazin-3-one; formic acid] is < 97.7 nM.
The same measure, in the same setting: the value for `Cc1ncc(F)c2c1CC(CCN1CC3(C1)CN(c1cnc4c(n1)NC(=O)CO4)C(=O)O3)C2` (stereo not shown) [Example 326, 6-[2-[2-(4-fluoro-1-methyl-6,7-dihydro-5H-cyclopenta[c]pyridin-6-yl)ethyl]-6-oxo-5-oxa-2,7-diazaspiro[3.4]octan-7-yl]-4H-pyrazino[2,3-b][1,4]oxazin-3-one] was 138 nM; that for `Cc1ncc(C#N)c2c1CC(CNCC[C@@H]1CN(c3cnc4c(n3)NC(=O)CO4)C(=O)O1)C2` (stereo partly drawn) [Example 365, 1-methyl-6-[[2-[(5R)-2-oxo-3-(3-oxo-4H-pyrazino[2,3-b][1,4]oxazin-6-yl)-1,3-oxazolidin-5-yl]ethylamino]methyl]-6,7-dihydro-5H-cyclopenta[c]pyridine-4-carbonitrile] was < 97.7 nM; that for `Cc1ncc(F)c2c1CC(CNCCc1nn(-c3ccc4c(n3)NC(=O)CO4)c(=O)o1)C2` (stereo not shown) [Example 68, 6-[5-[2-[(4-fluoro-1-methyl-6,7-dihydro-5H-cyclopenta[c]pyridin-6-yl)methylamino]ethyl]-2-oxo-1,3,4-oxadiazol-3-yl]-4H-pyrido[3,2-b][1,4]oxazin-3-one] was 175 nM.
In the case of `N#Cc1cc(OCCN)cc2c1CC(CNCCC1CN(c3ccc4c(n3)NC(=O)CO4)C(=O)O1)C2` (stereo not shown) [Example 188, 6-(2-aminoethoxy)-2-[[2-[2-oxo-3-(3-oxo-4H-pyrido[3,2-b][1,4]oxazin-6-yl)-1,3-oxazolidin-5-yl]ethylamino]methyl]-2,3-dihydro-1H-indene-4-carbonitrile], the half-maximal inhibitory concentration (IC50) is < 97.7 nM.
The same measure, in the same setting: the figure for `CNC(=O)COc1ncc2c(c1C)CC(CNCCC1CN(c3ccc4c(n3)NC(=O)CO4)C(=O)O1)C2` (stereo not shown) [Example 223, N-methyl-2-((4-methyl-6-(((2-(2-oxo-3-(3-oxo-3,4-dihydro-2H-pyrido[3,2-b][1,4]oxazin-6-yl)oxazolidin-5-yl)ethyl)amino)methyl)-6,7-dihydro-5H-cyclopenta[c]pyridin-3-yl)oxy)acetamide] is 389 nM; for `Cc1ncc(F)c2c1CC(N[C@H]1CC[C@@]3(CC1)CN(c1cnc4c(n1)NC(=O)CO4)C(=O)O3)C2` (stereo partly shown) [Example 298] it is 369 nM.
Same read-out and setting: the figure for `Cc1nc(OCC2COCCN2)c(C)c2c1CC(CNCCC1CN(c3ccc4c(n3)NC(=O)CO4)C(=O)O1)C2` (stereo not shown) [Example 199, 6-[5-[2-[[1,4-dimethyl-3-(morpholin-3-ylmethoxy)-6,7-dihydro-5H-cyclopenta[c]pyridin-6-yl]methylamino]ethyl]-2-oxo-1,3-oxazolidin-3-yl]-4H-pyrido[3,2-b][1,4]oxazin-3-one] is 88.4 nM.
On the same count and under the same terms, the figure for `NC1(COc2cc3c(c(Cl)n2)CC(CNCCC2CN(c4ccc5c(n4)NC(=O)CO5)C(=O)O2)C3)CC1` (stereo not shown) [Example 122, 6-[5-[2-[[3-[(1-aminocyclopropyl)methoxy]-1-chloro-6,7-dihydro-5H-cyclopenta[c]pyridin-6-yl]methylamino]ethyl]-2-oxo-1,3-oxazolidin-3-yl]-4H-pyrido[3,2-b][1,4]oxazin-3-one; formic acid] is < 97.7 nM.
Regarding `O=C1COc2ccc(N3CC(CNC4Cc5cccc(Cl)c5C4)OC3=O)nc2N1` (stereo not shown) [Example 22, 6-[5-[[(4-chloro-2,3-dihydro-1H-inden-2-yl)amino]methyl]-2-oxo-1,3-oxazolidin-3-yl]-4H-pyrido[3,2-b][1,4]oxazin-3-one], the half-inhibitory concentration (IC50) was determined as 8530 nM.
For `Cc1c(F)cnc2c1CC(CN1CCC3(CC1)CN(c1cnc4c(n1)NC(=O)CO4)C(=O)O3)C2` (stereo not shown) [Example 301, 6-[8-[(3-fluoro-4-methyl-6,7-dihydro-5H-cyclopenta[b]pyridin-6-yl)methyl]-2-oxo-1-oxa-3,8-diazaspiro[4.5]decan-3-yl]-4H-pyrazino[2,3-b][1,4]oxazin-3-one], the IC50 was < 97.7 nM.
Take `N[C@H](CO)COc1ncc2c(c1Cl)CC(CNCCC1CN(c3ccc4c(n3)NC(=O)CO4)C(=O)O1)C2` (stereo partly drawn) [Example 237, 6-[5-[2-[[4-Chloro-3-[(2R)-2-amino-3-hydroxypropoxy]-6,7-dihydro-5H-cyclopenta[c]pyridin-6-yl]methylamino]ethyl]-2-oxo-1,3-oxazolidin-3-yl]-4H-pyrido[3,2-b][1,4]oxazin-3-one]: the 50% inhibitory concentration (IC50) was found to be 140 nM.
Take `O=C1COc2ccc(N3CC(CNC4Cc5ccc(Cl)cc5C4)OC3=O)nc2N1` (stereo not shown) [Example 25, 6-[5-[[(5-chloro-2,3-dihydro-1H-inden-2-yl)amino]methyl]-2-oxo-1,3-oxazolidin-3-yl]-4H-pyrido[3,2-b] [1,4]oxazin-3-one]: the IC50 was found to be 4070 nM.

The assay is the same for the next values; noted with them: strain Escherichia coli ATCC 25922; 10-point broth dilution, optical density at 600 nm over 16 h; read-out: Escherichia coli growth inhibition IC50.
`Cc1ncc(F)c2c1CC(NCC(O)CC1CN(c3cnc4c(n3)NC(=O)CO4)C(=O)O1)C2` (single isomer, unassigned; isomer d) [Example 316, 6-[2-Oxo-5-[3-[(4-fluoro-1-methyl-6,7-dihydro-5H-cyclopenta[c]pyridin-6-yl)amino]-2-hydroxypropyl]-1,3-oxazolidin-3-yl]-4H-pyrazino[2,3-b][1,4]oxazin-3-one; formic acid, Isomer D]: the half-inhibitory concentration (IC50) was determined as 957 nM.
On the same count and under the same terms, the figure for `N#Cc1cccc2c1CC(NCC(O)CC1CN(c3cnc4c(n3)NC(=O)CO4)C(=O)O1)C2` (single isomer, unassigned; isomer b) [Example 82, 2-[[2-hydroxy-3-[2-oxo-3-(3-oxo-4H-pyrazino[2,3-b][1,4]oxazin-6-yl)-1,3-oxazolidin-5-yl]propyl]amino]-2,3-dihydro-1H-indene-4-carbonitrile, Isomer B; formic acid] is 152 nM; for `O=C1COc2ccc(N3CC(CCNCC4Cc5c(Cl)cccc5C4O)OC3=O)nc2N1` (racemic) [Example 231, 6-[2-Oxo-5-[2-[[rac-1,2-cis-4-chloro-1-hydroxy-2,3-dihydro-1H-inden-2-yl]methylamino]ethyl]-1,3-oxazolidin-3-yl]-4H-pyrido[3,2-b][1,4]oxazin-3-one] it is 176 nM.

Values taken from patent publication US20230167127A1, “COMPOUNDS AND THEIR USE IN THE TREATMENT OF BACTERIAL INFECTION” (Hoffmann-La Roche Inc., priority 2020, published 2023).
